Assays:
Assay type in all cases: in vivo
Eleusine indica [1] = test: Further glasshouse test versus other ACCase-inhibiting herbicides, Table B2-2; details: 21 days after application
From the text: (§1) Further tests were employed to test the efficacy of a compound of Formula I versus other ACCase-inhibiting herbicides. The five main targets were Lolium multiflorum, Eleusine indica, Digitaria insularis, Sorghum halepense and Echinochloa crus-galli. Collectively, the populations contained all the major target-site resistance mutations affecting ACCase herbicides. Two L. multiflorum (LM-NTSR-1 and LM-NTSR-2) and one E. crus-galli (ECG-NTSR-1) populations were characterised exclusively by non-target-site resistance (“NTSR”). The target-site resistant L. multiflorum and E. indication populations were 100% homozygous for different ACCase mutations whilst the D. insularis, S. halepense and E. crus-galli samples contained a mixture of homozygous wild and mutant individuals at different genotypic frequencies. Additional underlying NTSR cannot be ruled out in the populations characterised by target-site resistance.
(§2) Around 50 seeds of each of the 24 weed populations were sown in 12-cm pots containing a mixture of peat and compost in a 1:1 ratio. The pots were watered, fertilised and kept in controlled glasshouse conditions set at 24° C./16 hr day, 18° C. night, 65% relative humidity, and a photon flux density of approximately 250 μmol quanta m^−2 s^−1 for Lolium multiflorum. The E. indica, D. insularis, S. halepense and E. crus-galli plants were kept in a separate glasshouse bay characterised by a 17 H photoperiod of 180 μmol m^−2 s^−1 with temperatures of 25° C. day and 19° C. night and 65% relative humidity. When the plants were at the two to four-leaf stage, they were treated with the various ACCase-inhibiting herbicides at 0, 15, 30, 60, 120 and 240 g ai ha^−1 in a spray cabinet mounted with a single mobile Teejet flat fan nozzle (11002VS) calibrated to deliver 200 L ha^−1 at 200 kPa. The L. multiflorum populations were treated by a compound of Formula Ic, clodinafop-propargyl, pinoxaden, cycloxydim and clethodim and the warm season grass weeds E. indica, D. insularis, S. halepense and E. crus-galli were sprayed with a Compound Ic and the commonly employed haloxyfop-methyl and clethodim. Three replicate pots were used per population. Plants were assessed for visual damage compared to the untreated control 21 days after application (0=0% damage; 100=100% damage).

Lolium multiflorum = test: Further glasshouse test versus other ACCase-inhibiting herbicides, Table B2-1; details: 21 days after application
From the text: as §1, §2

Eleusine indica [2] = test: Glasshouse post-emergence test, visual damage, Tables B1-2 and B1-3; details: 14 days after application
Description: Seeds of a variety of test species are sown in standard soil in pots. For each treatment, three replicate pots containing 10-15 plants per one-inch pot were sprayed at the 2-3 leaf stage. […] The test plants are then grown in a glasshouse under controlled conditions in a glasshouse (at 24/16° C., day/night; 14 hours light; 65% humidity) and watered twice daily. Plants were assessed for visual damage compared to the untreated control 14 days after application (0=0% damage; 100=100% damage).

Volunteer corn = test: 26 field trials, control of volunteer corn, Table B1-6

`CC#Cc1ccc(C2=C(OC(=O)OC)C3CCC(C3)C2=O)c(OC)c1` (stereo not shown) [Compound Ic] showed a visual damage (Eleusine indica [1]; biotype D2078G, 15 g/ha) of 88%, a visual damage (Eleusine indica [1]; biotype D2078G, 30 g/ha) of 100% and a visual damage (Eleusine indica [1]; biotype D2078G, 60 g/ha) of 100%. It also gave a visual damage (Eleusine indica [1]; biotype D2078G, 120 g/ha) of 100%, a visual damage (Eleusine indica [1]; biotype D2078G, 240 g/ha) of 100% and a visual damage (Eleusine indica [1]; biotype G2096A, 15 g/ha) of 93%. For the same compound, the visual damage (Eleusine indica [1]; biotype G2096A, 30 g/ha) was 98%, the visual damage (Eleusine indica [1]; biotype G2096A, 60 g/ha) was 100% and the visual damage (Eleusine indica [1]; biotype G2096A, 120 g/ha) was 100%. It also gave a visual damage (Eleusine indica [1]; biotype G2096A, 240 g/ha) of 100%, a visual damage (Eleusine indica [1]; biotype I2041N, 15 g/ha) of 50% and a visual damage (Eleusine indica [1]; biotype I2041N, 30 g/ha) of 98%. It also gave a visual damage (Eleusine indica [1]; biotype I2041N, 60 g/ha) of 100%, a visual damage (Eleusine indica [1]; biotype I2041N, 120 g/ha) of 100% and a visual damage (Eleusine indica [1]; biotype I2041N, 240 g/ha) of 100%. The visual damage (Eleusine indica [1]; biotype Sensitive, 15 g/ha) was 100%, the visual damage (Eleusine indica [1]; biotype Sensitive, 30 g/ha) was 100% and the visual damage (Eleusine indica [1]; biotype Sensitive, 60 g/ha) was 100%. For the same compound, the visual damage (Eleusine indica [1]; biotype Sensitive, 120 g/ha) was 100%, the visual damage (Eleusine indica [1]; biotype Sensitive, 240 g/ha) was 100% and the visual damage (Eleusine indica [1]; biotype W2027C, 15 g/ha) was 100%. It also gave a visual damage (Eleusine indica [1]; biotype W2027C, 30 g/ha) of 100%, a visual damage (Eleusine indica [1]; biotype W2027C, 60 g/ha) of 100% and a visual damage (Eleusine indica [1]; biotype W2027C, 120 g/ha) of 100%. For the same compound, the visual damage (Eleusine indica [1]; biotype W2027C, 240 g/ha) was 100%, the visual damage (Lolium multiflorum; biotype C2088R, 15 g/ha) was 100% and the visual damage (Lolium multiflorum; biotype C2088R, 30 g/ha) was 100%. It also gave a visual damage (Lolium multiflorum; biotype C2088R, 60 g/ha) of 100%, a visual damage (Lolium multiflorum; biotype C2088R, 120 g/ha) of 100% and a visual damage (Lolium multiflorum; biotype C2088R, 240 g/ha) of 100%. For the same compound, the visual damage (Lolium multiflorum; biotype D2078G, 15 g/ha) was 20%, the visual damage (Lolium multiflorum; biotype D2078G, 30 g/ha) was 90% and the visual damage (Lolium multiflorum; biotype D2078G, 60 g/ha) was 100%. For the same compound, the visual damage (Lolium multiflorum; biotype D2078G, 120 g/ha) was 100%, the visual damage (Lolium multiflorum; biotype D2078G, 240 g/ha) was 100% and the visual damage (Lolium multiflorum; biotype I1781L, 15 g/ha) was 100%. The visual damage (Lolium multiflorum; biotype I1781L, 30 g/ha) was 100%, the visual damage (Lolium multiflorum; biotype I1781L, 60 g/ha) was 100% and the visual damage (Lolium multiflorum; biotype I1781L, 120 g/ha) was 100%. The visual damage (Lolium multiflorum; biotype I1781L, 240 g/ha) was 100%, the visual damage (Lolium multiflorum; biotype Sensitive, 15 g/ha) was 100% and the visual damage (Lolium multiflorum; biotype Sensitive, 30 g/ha) was 100%. For the same compound, the visual damage (Lolium multiflorum; biotype Sensitive, 60 g/ha) was 100%, the visual damage (Lolium multiflorum; biotype Sensitive, 120 g/ha) was 100% and the visual damage (Lolium multiflorum; biotype Sensitive, 240 g/ha) was 100%. It also gave a visual damage (Lolium multiflorum; biotype W1999S, 15 g/ha) of 85%, a visual damage (Lolium multiflorum; biotype W1999S, 30 g/ha) of 100% and a visual damage (Lolium multiflorum; biotype W1999S, 60 g/ha) of 100%. It also gave a visual damage (Lolium multiflorum; biotype W1999S, 120 g/ha) of 100%, a visual damage (Lolium multiflorum; biotype W1999S, 240 g/ha) of 100% and a visual damage (Lolium multiflorum; biotype W2027C, 15 g/ha) of 88%. The visual damage (Lolium multiflorum; biotype W2027C, 30 g/ha) was 100%, the visual damage (Lolium multiflorum; biotype W2027C, 60 g/ha) was 100% and the visual damage (Lolium multiflorum; biotype W2027C, 120 g/ha) was 100%. It also gave a visual damage (Lolium multiflorum; biotype W2027C, 240 g/ha) of 100%, a visual damage (Lolium multiflorum; population LM-NTSR-1 (non-target-site resistance), 15 g/ha) of 93% and a visual damage (Lolium multiflorum; population LM-NTSR-1 (non-target-site resistance), 30 g/ha) of 100%. For the same compound, the visual damage (Lolium multiflorum; population LM-NTSR-1 (non-target-site resistance), 60 g/ha) was 100%, the visual damage (Lolium multiflorum; population LM-NTSR-1 (non-target-site resistance), 120 g/ha) was 100% and the visual damage (Lolium multiflorum; population LM-NTSR-1 (non-target-site resistance), 240 g/ha) was 100%. For the same compound, the visual damage (Lolium multiflorum; population LM-NTSR-2 (non-target-site resistance), 15 g/ha) was 48%, the visual damage (Lolium multiflorum; population LM-NTSR-2 (non-target-site resistance), 30 g/ha) was 82% and the visual damage (Lolium multiflorum; population LM-NTSR-2 (non-target-site resistance), 60 g/ha) was 87%. For the same compound, the visual damage (Lolium multiflorum; population LM-NTSR-2 (non-target-site resistance), 120 g/ha) was 100%, the visual damage (Lolium multiflorum; population LM-NTSR-2 (non-target-site resistance), 240 g/ha) was 100% and the visual damage (Eleusine indica [2]; Table B1-2, biotype 87% I1781L (heterozygous), 15 g/ha) was 97%. The visual damage (Eleusine indica [2]; Table B1-2, biotype 87% I1781L (heterozygous), 30 g/ha) was 100%, the visual damage (Eleusine indica [2]; Table B1-2, biotype 87% I1781L (heterozygous), 60 g/ha) was 100% and the visual damage (Eleusine indica [2]; Table B1-2, biotype 87% I1781L (heterozygous), 120 g/ha) was 100%. For the same compound, the visual damage (Eleusine indica [2]; Table B1-2, biotype D2078G + W2027C (heterozygous), first entry, 15 g/ha) was 87%, the visual damage (Eleusine indica [2]; Table B1-2, biotype D2078G + W2027C (heterozygous), first entry, 30 g/ha) was 100% and the visual damage (Eleusine indica [2]; Table B1-2, biotype D2078G + W2027C (heterozygous), first entry, 60 g/ha) was 100%. It also gave a visual damage (Eleusine indica [2]; Table B1-2, biotype D2078G + W2027C (heterozygous), first entry, 120 g/ha) of 100%, a visual damage (Eleusine indica [2]; Table B1-2, biotype D2078G + W2027C (heterozygous), second entry, 15 g/ha) of 83% and a visual damage (Eleusine indica [2]; Table B1-2, biotype D2078G + W2027C (heterozygous), second entry, 30 g/ha) of 100%. The visual damage (Eleusine indica [2]; Table B1-2, biotype D2078G + W2027C (heterozygous), second entry, 60 g/ha) was 100%, the visual damage (Eleusine indica [2]; Table B1-2, biotype D2078G + W2027C (heterozygous), second entry, 120 g/ha) was 100% and the visual damage (Eleusine indica [2]; Table B1-2, biotype I2041N (heterozygous), 15 g/ha) was 70%. It also gave a visual damage (Eleusine indica [2]; Table B1-2, biotype I2041N (heterozygous), 30 g/ha) of 100%, a visual damage (Eleusine indica [2]; Table B1-2, biotype I2041N (heterozygous), 60 g/ha) of 100% and a visual damage (Eleusine indica [2]; Table B1-2, biotype I2041N (heterozygous), 120 g/ha) of 100%. It also gave a visual damage (Eleusine indica [2]; Table B1-2, biotype NTSR (non-target site resistance), 1 g/ha) of 20%, a visual damage (Eleusine indica [2]; Table B1-2, biotype NTSR (non-target site resistance), 2 g/ha) of 40% and a visual damage (Eleusine indica [2]; Table B1-2, biotype NTSR (non-target site resistance), 4 g/ha) of 60%. For the same compound, the visual damage (Eleusine indica [2]; Table B1-2, biotype NTSR (non-target site resistance), 8 g/ha) was 73%, the visual damage (Eleusine indica [2]; Table B1-2, biotype Sensitive, 15 g/ha) was 100% and the visual damage (Eleusine indica [2]; Table B1-2, biotype Sensitive, 30 g/ha) was 100%. The visual damage (Eleusine indica [2]; Table B1-2, biotype Sensitive, 60 g/ha) was 100%, the visual damage (Eleusine indica [2]; Table B1-2, biotype Sensitive, 120 g/ha) was 100% and the visual damage (Eleusine indica [2]; Table B1-3, Pop1 (mix of sensitive, D2078G and G2096A biotypes), 15 g/ha) was 98%. The visual damage (Eleusine indica [2]; Table B1-3, Pop1 (mix of sensitive, D2078G and G2096A biotypes), 30 g/ha) was 100%, the visual damage (Eleusine indica [2]; Table B1-3, Pop1 (mix of sensitive, D2078G and G2096A biotypes), 60 g/ha) was 100% and the visual damage (Eleusine indica [2]; Table B1-3, Pop1 (mix of sensitive, D2078G and G2096A biotypes), 120 g/ha) was 100%. It also gave a visual damage (Eleusine indica [2]; Table B1-3, Pop2 (mix of sensitive, D2078G and G2096A biotypes), 15 g/ha) of 86%, a visual damage (Eleusine indica [2]; Table B1-3, Pop2 (mix of sensitive, D2078G and G2096A biotypes), 30 g/ha) of 100% and a visual damage (Eleusine indica [2]; Table B1-3, Pop2 (mix of sensitive, D2078G and G2096A biotypes), 60 g/ha) of 100%. For the same compound, the visual damage (Eleusine indica [2]; Table B1-3, Pop2 (mix of sensitive, D2078G and G2096A biotypes), 120 g/ha) was 100%, the visual damage (Eleusine indica [2]; Table B1-3, biotype Sensitive, 15 g/ha) was 100% and the visual damage (Eleusine indica [2]; Table B1-3, biotype Sensitive, 30 g/ha) was 100%. The visual damage (Eleusine indica [2]; Table B1-3, biotype Sensitive, 60 g/ha) was 100%, the visual damage (Eleusine indica [2]; Table B1-3, biotype Sensitive, 120 g/ha) was 100% and the Control (14d) (Volunteer corn; 25 g/ha) was 93%. For the same compound, the Control (28d) (Volunteer corn; 25 g/ha) was 99%, the Control (14d) (Volunteer corn; 50 g/ha) was 99% and the Control (28d) (Volunteer corn; 50 g/ha) was 100%. It also gave a Control (14d) (Volunteer corn; 100 g/ha) of 99%, a Control (28d) (Volunteer corn; 100 g/ha) of 100% and a Control (14d) (Volunteer corn; 200 g/ha) of 99%. The Control (28d) (Volunteer corn; 200 g/ha) was 100%.

— patent US20260215428A1, “WEED CONTROL METHOD” (SYNGENTA CROP PROTECTION AG, priority 2023, published 2026)
